Assay: Contact angle of excipient solution in 0.1 M HCl with API pellet (sessile drop)
Type: physicochemical
Settings: 0.1% excipient in 0.1 M HCl, 10-μL drops on pressed API pellet
From the text: A factor which contributes to the bioavailability of active pharmaceutical ingredients (API's) is the wetting of the API by an aqueous solution at a physiological pH. Wetting can affect dissolution rates of the API in the aqueous solution. Wetting can be assessed by measuring the contact angle between an aqueous solution and an API. In these examples, the sessile drop method was used to determine contact angles. Pellets of API were produced using an X-press 3630 with a 35-mm pressing die. The API was pressed into a 35-mm diameter aluminum pan using the standard 30-ton cycle in order to produce a flat surface. Drops (10-μL) of a 0.1% test solution of an excipient were used. The test solution was 0.1 M HCl, to simulate physiological conditions in the human stomach.

| Contact Angle with Fenofibrate [°] | Contact Angle with Glipizide [°] | Contact Angle with Ibuprofen [°] | Contact Angle with Naproxen [°] | Contact Angle with Ritonavir [°] | Molecule |
| --- | --- | --- | --- | --- | --- |
| 70 | 55 | 68 | 52 | 51 | Polyoxyethylene (20) sorbitan monooleate [TWEEN ™ 80] |
| 58 | 42 | 45 | 48 | 40 | Polyoxyethylene (20) sorbitan monolaurate [TWEEN ™ 20] |
| 47 | 43 | 54 | 34 | 57 | CCCCCCCCCCCCOS(=O)(=O)[O-].[Na+] [SLS, Sodium lauryl sulfate] |

Reference: US10022328B2, “Dialkyl sulfosuccinate compositions, method of making, and method of use” (CYTEC INDUSTRIES INC., priority 2015, dated 2018)
